Measured values as given in patent US9643967B2, “Pyrrolo[3,2-c]pyridine derivatives as TLR inhibitors” (TAKEDA PHARMACEUTICAL COMPANY LIMITED, priority 2013, dated 2017).
Where two headings read alike, the source gives them in different places.

Molecular target: T1, mTLR9 (Mus musculus, UniProt Q9EQU3)
T1 construct: Splenocytes isolated from male C57/BL6 mice; from tissue; host or cells: splenocytes from the spleen of male C57BL/6 mice
T1 sequence (Q9EQU3 26-1032): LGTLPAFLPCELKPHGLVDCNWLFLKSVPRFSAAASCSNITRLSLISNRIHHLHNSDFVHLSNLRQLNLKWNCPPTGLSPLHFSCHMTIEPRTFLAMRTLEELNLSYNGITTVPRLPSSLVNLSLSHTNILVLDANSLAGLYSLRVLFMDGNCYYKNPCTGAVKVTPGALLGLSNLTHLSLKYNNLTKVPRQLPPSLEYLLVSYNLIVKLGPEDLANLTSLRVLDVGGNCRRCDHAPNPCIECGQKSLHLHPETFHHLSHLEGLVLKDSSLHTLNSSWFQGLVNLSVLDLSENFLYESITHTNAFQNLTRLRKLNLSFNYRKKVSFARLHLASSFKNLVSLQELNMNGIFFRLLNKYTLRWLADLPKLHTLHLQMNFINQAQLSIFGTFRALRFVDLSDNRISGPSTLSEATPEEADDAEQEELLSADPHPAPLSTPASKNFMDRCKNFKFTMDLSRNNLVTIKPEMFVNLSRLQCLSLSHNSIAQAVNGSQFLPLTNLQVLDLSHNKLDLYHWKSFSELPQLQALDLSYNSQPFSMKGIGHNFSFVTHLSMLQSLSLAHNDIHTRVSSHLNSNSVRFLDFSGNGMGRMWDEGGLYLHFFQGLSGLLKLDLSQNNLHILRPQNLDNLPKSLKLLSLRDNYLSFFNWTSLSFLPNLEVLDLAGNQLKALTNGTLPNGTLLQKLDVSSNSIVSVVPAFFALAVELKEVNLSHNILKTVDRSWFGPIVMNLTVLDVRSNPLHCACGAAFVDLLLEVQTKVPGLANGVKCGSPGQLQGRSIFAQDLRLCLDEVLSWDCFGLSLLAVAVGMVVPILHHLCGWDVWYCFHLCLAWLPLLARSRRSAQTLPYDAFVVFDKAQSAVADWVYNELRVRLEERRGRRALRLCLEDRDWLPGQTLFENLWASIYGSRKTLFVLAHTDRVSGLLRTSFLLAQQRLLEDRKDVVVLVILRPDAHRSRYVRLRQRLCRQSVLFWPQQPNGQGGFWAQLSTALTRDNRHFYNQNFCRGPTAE
Test: mTLR9 antagonism (IL-6 and TNF-α release assay) in mouse splenocytes, CpG ODN-2006 stimulated
Format: cell-based
Conditions: 1 μM, mouse splenocytes
Text: mTLR9 and mTLR7 Antagonism (Cytokine Release Assay) in Mouse Splenocytes
TLR7 ligand R0006 (IDT, 5′-rU*rU*rG*rU*rU*rG*rU*rU*rG*rU*rU*rG*rU*rU*rG*rU*rU*rG*rU*rU-3′ (SEQ ID NO:1)), Liposomal transfection reagent—DOTAP (Roche, Cat. No. 11202375001), TLR9 ligand CpG ODN2006 (Sequence: T*C*G*T*C*G*T*T*T*T*G*T*C*G*T*T*T*T*G*T*C*G*T*T; *=phosphorothioate (SEQ ID NO:2)) DMSO (Sigma, D2650), RPMI Powder (Sigma, R6504), Fetal Bovine Serum (Gibco, 10270), Dulbecco's Phosphate Buffered Saline (Sigma, D1408), 96 well plate (Flat bottom, Costar 3599), ELISA kit for IL-6 (EBioscience, 88-7064-77 and TNFa (EBioscience, 88-7346-88), MACS Buffer (AutoMACS Rinsing Solution (Miltenyl Biotec, 130-091-222)+0.05% BSA), RBC lysis buffer (0.85% NH4Cl), 40 μm cell strainer (BD Falcon, 352340) Method: A. Isolation of Mouse Splenocytes
Mouse spleen was isolated from C57BL6 mouse and stored in 1× chilled PBS buffer until further processed. Spleen was transferred to a sterile petriplate and chopped in to 5-6 pieces in presence of MACS buffer (100 μl) with the help of fresh surgical blade and crushed with flat plunger of a sterile syringe. A uniform suspension was prepared by passing cells through a 40 μm cell strainer. Cells were centrifuged at 450×g for 5 minutes at 4° C., supernatant was discarded and pellet dislodged gently, resuspended in 2 ml of pre-warmed (37° C.) RBC lysis buffer at room temperature with continuous gentle mixing with 1 ml pipette. Lysis buffer was neutralized with 12 ml of chilled MACS buffer and cells were passed through 40 μm cell strainer. Cell suspension was collected in 15 ml MACS buffer and centrifuged at 450×g for 5 minutes at 4° C. Pellet was resuspended in 15 ml MACS buffer and centrifuged at 400×g for 5 minutes. Cells were resuspended in 10 ml of RPMI complete medium and viability was estimated by Trypan blue method.
mTLR9 Antagonism (IL-6 and TNF-α Release Assay):
500 μM stock of CpG ODN-2006 was prepared in sterile, endotoxin-free water. Dilutions of 10× concentrations of NCEs were prepared in incomplete RPMI media, maintaining a final DMSO concentration of 0.3%. NCEs were added in a concentration range of 30 μM to 1 nM in respective wells of assay plate, assay medium containing 0.3% DMSO were added to control wells. 0.2 million splenocytes were added to all the wells and incubated at 37° C. in 5% CO2 incubator for 30 minutes. 1 μg/ml of respective agonist was added to all the wells except those were assigned as negative controls and mixed thoroughly. Incomplete RPMI was added to negative control wells and incubated overnight at 37° C./5% CO2. The plate was centrifuged at 450×g for 5 minutes at room temperature and the supernatant was collected. ELISA was performed as per manufacturer's protocol. S/B Ratio, % Activity and % Inhibition was calculated using MS Excel. IC50 and inhibition curve was generated using Graph Pad Prism.

[1] = IL-6 release, read-out: mTLR9 inhibitory activity (% at 1 μM), IL-6
[2] = TNF-α release, read-out: mTLR9 inhibitory activity (% at 1 μM), TNF-α

SMILES | inhibition at 1 µM [1] [%] | inhibition at 1 µM [2] [%]
CC(C)N1CCN(c2ccc(-c3nccc4[nH]c(CN5CCOCC5)cc34)cc2)CC1 [Example A1, 4-[[4-[4-(4-isopropylpiperazin-1-yl)phenyl]-1H-pyrrolo[3,2-c]pyridin-2-yl]methyl]morpholine] | 100 | 94
CN1CCN(c2ccc(-c3nccc4[nH]c(CN5CCOCC5)cc34)cc2)CC1 [Example A2, 4-[[4-[4-(4-methylpiperazin-1-yl)phenyl]-1H-pyrrolo[3,2-c]pyridin-2-yl]methyl] morpholine] | 100 | 94
CCN1CCN(c2ccc(-c3nccc4[nH]c(CN5CCOCC5)cc34)cc2)CC1 [Example A3, 4-[[4-[4-(4-ethylpiperazin-1-yl)phenyl]-1H-pyrrolo[3,2-c]pyridin-2-yl]methyl] morpholine] | 100 | 85
Cc1cc2[nH]c(CN3CCOCC3)cc2c(-c2ccc(N3CCN(C(C)C)CC3)cc2)n1 [Example A4, 4-[[4-[4-[4-isopropylpiperazin-1-yl)phenyl]-6-methyl-1H-pyrrolo[3,2-c]pyridin-2-yl]methyl] morpholine] | 100 | 100
CCN1CCN(c2ccc(-c3nc(C)cc4[nH]c(CN5CCOCC5)cc34)cc2)CC1 [Example A5, 4-[[4-[4-(4-ethylpiperazin-1-yl)phenyl]-6-methyl-1H-pyrrolo[3,2-c]pyridin-2-yl]methyl] morpholine] | 100 | 91
CC(C)N1CCN(c2ccc(-c3nccc4c3cc(CN3CCOCC3)n4C)cc2)CC1 [Example A8, 4-[[4-[4-(4-isopropylpiperazin-1-yl)phenyl]-1-methyl-pyrrolo[3,2-c]pyridin-2-yl]methyl] morpholine] |  | 100
CN1CCN(c2ccc(-c3nccc4c3cc(CN3CCOCC3)n4C)cc2)CC1 [Example A9, 4-[[1-methyl-4-[4-(4-methylpiperazin-1-yl)phenyl]pyrrolo[3,2-c]pyridin-2-yl]methyl] morpholine] |  | 94
CC(C)N1CCN(c2ccc(-c3nccc4[nH]c(CN5CCC(O)CC5)cc34)cc2)CC1 [Example A12, 1-[[4-[4-(4-isopropylpiperazin-1-yl)phenyl]-1H-pyrrolo[3,2-c]pyridin-2-yl]methyl] piperidin-4-ol] | 95 | 52
CC(C)N1CCN(c2ccc(-c3nccc4[nH]c(CN5CCC6(CC5)CC(O)C6)cc34)cc2)CC1 [Example A13, 7-[[4-[4-(4-isopropylpiperazin-1-yl)phenyl]-1H-pyrrolo[3,2-c]pyridin-2-yl]methyl]-7-azaspiro[3.5] nonan-2-ol] | 100 | 91
CC(C)N1CCN(c2ccc(-c3nccc4[nH]c(CN5CC(F)C5)cc34)cc2)CC1 [Example A16, 2-[(3-fluoroazetidin-1-yl)methyl]-4-[4-(4-isopropylpiperazin-1-yl)phenyl]-1H-pyrrolo[3,2-c]pyridine] | 100 | 100
CC(C)N1CCN(c2ccc(-c3nccc4[nH]c(CN5CCCCC5)cc34)cc2)CC1 [Example A17, 4-[4-(4-isopropylpiperazin-1-yl)phenyl]-2-(1-piperidylmethyl)-1H-pyrrolo[3,2-c]pyridine] | 100 | 100
CC(C)N1CCN(c2ccc(-c3nccc4[nH]c(CN5CCC(F)CC5)cc34)cc2)CC1 [Example A24, 2-[(4-fluoro-1-piperidyl)methyl]-4-[4-(4-isopropylpiperazin-yl)phenyl]-1H-pyrrolo[3,2-c] pyridine] |  | 100
CN1CCN(c2ccc(-c3nccc4[nH]c(CN5CCC(F)CC5)cc34)cc2)CC1 [Example A25, 2-[(4-fluoro-1-piperidyl)methyl]-4-[4-(4-methylpiperazin-1-yl)phenyl] - 1H-pyrrolo[3,2-c]pyridine] | 100 | 100
Cc1cc2[nH]c(Cn3cccn3)cc2c(-c2ccc(N3CCN(C(C)C)CC3)cc2)n1 [Example A28, 4-[4-(4-isopropylpiperazin-1-yl)phenyl]-6-methyl-2-(pyrazol-1-ylmethyl)-1H-pyrrolo[3,2-c]pyridine] | 100 | 100
Cc1cc2[nH]c(CN3CCC4(CC3)CC(O)C4)cc2c(-c2ccc(N3CCN(C(C)C)CC3)cc2)n1 [Example A29, 7-[[4-[4-(4-isopropylpiperazin-1-yl)phenyl]-6-methyl-1H-pyrrolo[3,2-c]pyridin-2-yl]methyl]-7-azaspiro[3.5] nonan-2-ol] | 96 | 64
Cc1cc2[nH]c(CN3CCC4(CC3)CC(C)C4)cc2c(-c2ccc(N3CCN(C(C)C)CC3)cc2)n1 [Example A30, 4-[4-(4-isopropylpiperazin-1-yl)phenyl]-6-methyl-2-[(2-methyl-7-azaspiro[3.5]nonan-7-yl)methyl]-1H-pyrrolo[3,2-c]pyridine] | 100 | 100
CC(C)N1CCN(c2ccc(-c3nc(C4CC4)cc4[nH]c(CN5CCOCC5)cc34)cc2)CC1 [Example A33, 4-[[6-cyclopropyl-4-[4-(4-isopropylpiperazin-1-yl)phenyl]-1H-pyrrolo[3,2-c]pyridin-2-yl]methyl] morpholine] |  | 85
CN1CCN(c2ccc(-c3nc(C4CC4)cc4[nH]c(CN5CCOCC5)cc34)cc2)CC1 [Example A34, 4-[[6-cyclopropyl-4-[4-(4-methylpiperazin-1-yl)phenyl]-1H-pyrrolo[3,2-c]pyridin-2-yl]methyl] morpholine] |  | 93
Cc1cc2c(cc(CN3CCOCC3)n2C)c(-c2ccc(N3CCN(C(C)C)CC3)cc2)n1 [Example A35, 4-[[4-[4-(4-isopropylpiperazin-1-yl]phenyl]-1,6-dimethyl-pyrrolo[3,2-c]pyridin-2-yl]methyl] morpholine] | 100 | 90
Cc1nc(-c2ccc(N3CCN(C(C)C)CC3)cc2)c2cc(CN3CCOCC3)[nH]c2c1C [Example A36, 4-[[4-[4-(4-isopropylpiperazin-1-yl)phenyl]-6,7-dimethyl-1H-pyrrolo[3,2-c]pyridin-2-yl]methyl] morpholine] |  | 100
